The record followed here is publication PMC5823845 (Bioorganic & Medicinal Chemistry, 2018).

Data set [1] concerns the target T1, mouse RAR gamma receptor (Mus musculus, UniProt P18911).
T1 sequence (P18911 185-419 limits assumed): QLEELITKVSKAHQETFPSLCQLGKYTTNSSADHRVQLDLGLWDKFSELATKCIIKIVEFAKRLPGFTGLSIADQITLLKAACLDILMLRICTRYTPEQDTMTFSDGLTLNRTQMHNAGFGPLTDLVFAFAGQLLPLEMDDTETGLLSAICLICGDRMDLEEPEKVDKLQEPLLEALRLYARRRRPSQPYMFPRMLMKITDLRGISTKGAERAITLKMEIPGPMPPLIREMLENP

For data set [2], the target named is T2, mouse RAR beta receptor (Mus musculus, UniProt P22605).
T2 sequence (P22605 210-444 limits assumed): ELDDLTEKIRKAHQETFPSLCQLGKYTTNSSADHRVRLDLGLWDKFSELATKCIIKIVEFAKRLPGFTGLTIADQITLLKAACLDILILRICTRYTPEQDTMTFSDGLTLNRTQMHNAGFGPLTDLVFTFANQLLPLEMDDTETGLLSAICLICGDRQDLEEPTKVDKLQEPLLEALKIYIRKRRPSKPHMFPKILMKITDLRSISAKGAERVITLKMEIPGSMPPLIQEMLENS
As to conditions: ratio of relative EC50s RARβ/RARα.

Data set [3] can be described thus: Intrinsic clearance in liver microsomes. The following applies: liver microsomes, 37 °C, NADPH, 45 min, mean of 5. The data set is classed as in vitro ADME. How it is done: The reaction is terminated by the addition of methanol. Following centrifugation, the supernatant is analyzed on the LC-MS/MS. […] The data is the mean on 5 separate experiments.
The ln peak area ratio (compound peak area/internal standard peak area) is plotted against time and the gradient of the line determined.
(see Supplementary data file for details).
Background: Liver microsomes are a subcellular fraction often used to study metabolism.

Data set [4] in a line: Log D pH 7.4, octanol/buffer shake flask method.
Method: Briefly, octanol (pre-saturated with buffer) is added to the test compound and sonicated. Buffer at pH 7.4 (presaturated with octanol) is then added to the octanol. […] The system is mixed to allow distribution of the compound between the two phases.
Log D = Log (Coct / Caq ). Where: Coct = Concentration in octanol sample (corrected for dilution) and Caq = Concentration in aqueous sample (corrected for dilution)
Where [5] appears, read: mouse, ratio of relative EC50s RARγ/RARα.

Molecules are shown by their SMILES. Read-outs that look alike come from different tables or passages of the source.

As usually defined, the microsomal CLint is a measure of how fast metabolising enzymes remove a compound, apart from limits set by blood flow. High values mean rapid turnover, low ones slow turnover. A word on the logD: it is the decadic logarithm of the distribution of all forms, ionised or not, between an organic phase and buffer at a given pH. A lower logD goes with a more hydrophilic compound.

As to `CC1(C)CCC(C)(C)c2c1cc(C(=O)Nc1cc(F)c(C(=O)O)c(F)c1)c(O)c2Cl` [Compound 4, reference compound], the γ/α ratio in data set [1] is 867. In addition, in data set [2], the β/α ratio is given as 141.
In the case of `CCCOc1c(Cl)cc(C(=O)Nc2ccc(C(=O)O)cc2)cc1Cl` [Compound 12], the γ/α ratio in data set [1] (setting [5]) stood at 82. For the same compound, the β/α ratio in data set [2] stood at 9.5.
Taken in the same sequence, the figures for `CCCCOc1c(Cl)cc(C(=O)Nc2ccc(C(=O)O)cc2)cc1Cl` [Compound 13] were 18 and 8.5.
In the same order, the values of `CC(C)Oc1c(Cl)cc(C(=O)Nc2ccc(C(=O)O)cc2)cc1Cl` [Compound 14] are 119 and 205.
On to `CC(C)(C)Oc1c(Cl)cc(C(=O)Nc2ccc(C(=O)O)cc2)cc1Cl` [Compound 16, 4-(4-(tert-Butoxy)-3,5-dichlorobenzamido)benzoic acid], for which the microsomal CLint in data set [3] (human microsomes) worked out at 16 µL/min/mg; in data set [3] (mouse microsomes), 91 µL/min/mg. The pH-dependent lipophilicity (logD) in data set [4] was 2.6.
In the case of `CCOc1c(Cl)cc(C(=O)Nc2ccc(C(=O)O)c(F)c2)cc1Cl` [Compound 17], the γ/α ratio in data set [1] (setting [5]) is recorded as greater than 80. Further, in data set [2], the β/α ratio was 80.
In the same order, the values of `CCOc1c(Cl)cc(C(=O)Nc2ccc(C(=O)O)c(O)c2)cc1Cl` [Compound 19, 4-(3,5-Dichloro-4-ethoxybenzamido)-2-hydroxybenzoic acid] are 149 and 37.
In the same order, the values of `CCOc1c(Cl)cc(C(=O)Nc2ccc(C(=O)O)c(Cl)c2)cc1Cl` [Compound 20] are greater than 50 and 64.
For `CCOc1c(Cl)cc(C(=O)Nc2ccc(C(=O)O)c(C(F)(F)F)c2)cc1Cl` [Compound 21], the γ/α ratio in data set [1] (setting [5]) is 11. In data set [2], the β/α ratio is 1.5.
Taken in the same sequence, the figures for `CCOc1c(Cl)cc(NC(=O)c2ccc(C(=O)O)cc2)cc1Cl` [Compound 26, 4-(3,5-Dichloro-4-ethoxyphenylcarbamoyl)benzoic acid] were greater than 3600 and 12.
Taken in the same sequence, the figures for `O=C(O)c1ccc(NC(=O)c2cc(Cl)c(OC3CCC3)c(OC3CCC3)c2)cc1` [Compound 40] were 447 and 22.
In the same order, the values of `CC(C)(C)Oc1cc(C(=O)Nc2ccc(C(=O)O)cc2)cc(Cl)c1OC(C)(C)C` [Compound 41, 4-(3,4-Di-tert-butoxy-5-chlorobenzamido)benzoic acid] are 189 and 44.
Regarding `O=C(O)c1ccc(NC(=O)c2cc(Cl)c(OC3CCCC3)c(OC3CCCC3)c2)cc1` [Compound 42, 4-[3-Chloro-4,5-bis(cyclopentyloxy)benzamido]benzoic acid], the γ/α ratio in data set [1] (setting [5]) is recorded as 336. The β/α ratio in data set [2] stood at 32.
In the case of `CCOc1cc(C(=O)Nc2ccc(C(=O)O)cc2)cc(Cl)c1OC(C)C` [Compound 52], in data set [1] (setting [5]), the γ/α ratio is reported as 570. In addition, the β/α ratio in data set [2] was 3.1.
For the compound `CCOc1c(Cl)cc(C(=O)Nc2ccc(C(=O)O)c(C)c2)cc1OC` [Compound 58], the γ/α ratio in data set [1] (setting [5]) was greater than 250. In data set [3] (mouse microsomes), this compound had an intrinsic clearance (microsomal CLint) of 18.4 µL/min/mg. Further, the β/α ratio in data set [2] was determined as 210.
Turning to `CCOc1c(Cl)cc(C(=O)Nc2ccc(C(=O)O)c(C)c2)cc1OCC1CC1` [Compound 59], in data set [1] (setting [5]), the γ/α ratio is 38,461. Further, the intrinsic clearance (microsomal CLint) in data set [3] (mouse microsomes) stood at 42.3 µL/min/mg. For the same compound, the β/α ratio in data set [2] is given as 58.
Take `O=C(O)c1ccc(NC(=O)c2cc(Cl)c(O)c(Cl)c2)cc1` [Compound 60]: the γ/α ratio in data set [1] (setting [5]) is 55. Moreover, the β/α ratio in data set [2] is on record as 7.
Turning to `COc1c(Cl)cc(C(=O)Nc2ccc(C(=O)O)cc2)cc1Cl` [Compound 61], the γ/α ratio in data set [1] (setting [5]) was 195. Also, the β/α ratio in data set [2] is reported as 318.
In the same order, the values of `CCOc1cc(C(=O)Nc2ccc(C(=O)O)cc2)cc(OCC)c1OCC` [Compound 62] are 16 and 174.
